The text below walks through data of patent US11578343B2, “CAS9 proteins including ligand-dependent inteins” (President and Fellows of Harvard College, priority 2014, dated 2023).

Holding throughout (assay type): cell-based, human
Data set [1] concerns genomic EGFP locus. The data set is described as follows: Genomic EGFP disruption in HEK293-GFP stable cells (loss of GFP by flow cytometry). The following applies: for Loss of GFP expression / nuclease activity, in words: with or without 1 μM 4-HT, FIG. 3c. As to the method: HEK293-GFP stable cells were transfected with the Cas9 expression plasmid, a gRNA (targeting Emerald GFP; Guilinger et al., Nature Biotechnology (2014)), and iRFP670 (transfection control), using Lipofectamine 2000. Twelve hours after transfection, media, either containing 4-HT (1 μM) or without 4-HT, was added.
Five days after transfection, cells were trypsinized and analyzed on a flow cytometer. Cells lacking GFP indicated genome modification. Cas9 variants that induced minimal genome modification in the absence of 4-HT but induce significant genome modification in the presence of 4-HT were deemed small-molecule-regulated variants in this Example.
Additionally, a time course was performed in which incubation with 4-HT was limited to 2, 4, 8, 12 or 24 hours, after which point the media was replaced.
We genetically inserted the 4-HT-dependent intein at each of fifteen positions in Cas9 (Cys80, Ala127, Thr146, Ser219, Thr333, Thr519, Cys574, Thr622, Ser701, Ala728, Thr995, Ser1006, Ser1154, Ser1159, and Ser1274), chosen to distribute the location of the intein across the structural domains of Cas9^23 (FIG. 3b and Example 1). Because intein splicing leaves behind a single Cys residue, the intein was inserted in place of one Cas9 amino acid in each of the 15 candidate constructs. In addition to replacing natural Cys amino acids, we also favored replacing Ala, Ser, or Thr residues to minimize the likelihood that the resulting Cys point mutation resulting from protein splicing would disrupt Cas9 activity. The 15 intein-Cas9 candidates were expressed in HEK293-GFP cells together with a sgRNA that targets the genomic EGFP locus in these cells. Twelve hours post-transfection, cells were treated with or without 1 μM 4-HT. Five days post-transfection, cells were analyzed on a flow cytometer for loss of GFP expression from Cas9-mediated EGFP cleavage and subsequent non-homologous end joining.
Modification of genomic GFP. HEK293-GFP stable cells (GenTarget), which constitutively express Emerald GFP, served as the reporter cell line. Cells were maintained in “full serum media”: Dulbecco's Modified Eagle's Media plus GlutaMax (Life Technologies) with 10% (vol/vol) FBS and penicillin/streptomycin (1×, Amresco). 5×10^4 cells were plated on 48-well collagen-coated Biocoat plates (Becton Dickinson). 16-18 h after plating, cells were transfected with Lipofectamine 2000 (Life Technologies) according to the manufacturer's protocol. Briefly, 1.5 μL of Lipofectamine 2000 was used to transfect 650 ng of total plasmid: 500 ng Cas9 expression plasmid, 125 ng sgRNA expression plasmid, and 25 ng near-infrared iRFP670 expressing plasmid (Addgene plasmid 45457)^26. 12 h after transfection, the media was replaced with full serum media, with or without 4-HT (1 μM, Sigma-Aldrich T176). The media was replaced again 3-4 days after transfection. Five days after transfection, cells were trypsinized and resuspended in full serum media and analyzed on a C6 flow cytometer (Accuri) with a 488-nm laser excitation and 520-nm filter with a 20-nm band pass. Transfections and flow cytometry measurements were performed in triplicate.
For orientation: Flow cytometry measures light scatter and fluorescence of single cells or particles in a stream.

The test system of a further data set is HEK293-GFP stable cells. Put plainly: Effect of 4-HT on cellular toxicity (live cell population, TO-PRO-3 stain, flow cytometry). As to conditions: 12 or 60 h of treatment with 1 μM 4-HT; untransfected or transfected HEK293 cells; FIG. 5. As to the method:
FIG. 5. Effect of 4-HT on cellular toxicity. Untransfected HEK293-GFP stable cells, and cells transfected with intein-Cas9(5219) and sgRNA expression plasmids, were treated with or without 4-HT (1 μM). 12 h after transfection, the media was replaced with full serum media, with or without 4-HT (1 μM). Cells were thus exposed to 4-HT for 0, 12, or 60 h. The live cell population was determined by flow cytometry 60 h after transfection using TO-PRO-3 stain (Life Technologies). Error bars reflect the standard deviation of six technical replicates.
We assayed these Cas9:sgRNA combinations in human cells for their ability to modify the three on-target loci as well as 11 known off-target genomic sites (Table 3)^4,5,10,13. Cells were treated with or without 1 μM 4-HT during transfection, and after 12 h the media was replaced with fresh media lacking 4-HT. […] Genomic DNA was isolated 60 h post-transfection and analyzed by high-throughput DNA sequencing

Data set [2] relates to genomic EGFP locus. Put plainly: Genomic EGFP disruption in HEK293-GFP stable cells (loss of GFP by flow cytometry). As to conditions: FIG. 12.
Setting [3] is: +4-HT (1 μM, added 12 h after transfection), five days after transfection, Table 1.
Where [4] appears, read: −4-HT, five days after transfection, Table 1.
Setting [5] is: +4-HT 2 hrs, then media replaced, Table 2.
The mark [6] stands for this setting: +4-HT 4 hrs, then media replaced, Table 2.
The mark [7] stands for this setting: +4-HT 8 hrs, then media replaced, Table 2.
Where [8] appears, read: +4-HT 12 hrs, then media replaced, Table 2.
Setting [9] is: +4-HT 24 hrs, then media replaced, Table 2.

As to “intein(Ser1154)-Cas9: Cas9 with 37R3-2 intein replacing Ser1154 (SEQ ID NO: 39)”, the entries for the “Cells without GFP (%)” value in the data set with genomic EGFP locus [1] (setting [3]) and in the data set on genomic EGFP locus [1] (setting [4]) were 41.94% and 21.14%, respectively. Besides, the “Loss of GFP expression / nuclease activity, in words” value with genomic EGFP locus [1] was “high DNA modification rates both in the presence and absence of 4-HT”.

For “intein(Ser1006)-Cas9: Cas9 with 37R3-2 intein replacing Ser1006 (SEQ ID NO: 38)”, the “Cells without GFP (%)” value turned out to be 12.61% with genomic EGFP locus [1] (setting [3]) and 6.80% in the data set with genomic EGFP locus [1] (setting [4]). The “Loss of GFP expression / nuclease activity, in words” value in the data set on genomic EGFP locus [1] is 4-HT-dependent loss of GFP expression.

As to 4-hydroxytamoxifen [4-HT], the Cellular toxicity entry in the data set with HEK293-GFP stable cells was “no cellular toxicity”.

Turning to “intein(Ala728)-Cas9: Cas9 with 37R3-2 intein replacing Ala728 (SEQ ID NO: 36)”, the “Cells without GFP (%)” value in the data set with genomic EGFP locus [1] (setting [3]) was determined as 41.89%; in the data set with genomic EGFP locus [1] (setting [4]), 20.82%. Further, the “Loss of GFP expression / nuclease activity, in words” value with genomic EGFP locus [1] was “high DNA modification rates both in the presence and absence of 4-HT”.

For “intein(Thr333)-Cas9: Cas9 with 37R3-2 intein replacing Thr333 (SEQ ID NO: 31)”, the results for the “Cells without GFP (%)” value with genomic EGFP locus [1] (setting [3]) and in the data set with genomic EGFP locus [1] (setting [4]) were 9.17% and 4.96%, respectively. Besides, the “Loss of GFP expression / nuclease activity, in words” value with genomic EGFP locus [1] is given as 4-HT-dependent loss of GFP expression.

Take “intein(Thr146)-Cas9: Cas9 with 37R3-2 intein replacing Thr146 (SEQ ID NO: 29)”: the “Cells without GFP (%)” value with genomic EGFP locus [1] (setting [5]) is 16.29%; with genomic EGFP locus [1] (setting [6]), 15.07%; in the data set on genomic EGFP locus [1] (setting [7]), 13.65%; in the data set with genomic EGFP locus [1] (setting [8]) it was 14.44%; with genomic EGFP locus [1] (setting [9]), 19.57%; in the data set with genomic EGFP locus [1] (setting [3]), 21.60%. The “Cells without GFP (%)” value was 8.77% in the data set on genomic EGFP locus [1] (setting [4]) and 4.28% with genomic EGFP locus [1] (−4-HT, time course, Table 2). Also, in the data set with genomic EGFP locus [1], the “Loss of GFP expression / nuclease activity, in words” value is reported as 4-HT-dependent loss of GFP expression.

For the substance “intein(Thr622)-Cas9: Cas9 with 37R3-2 intein replacing Thr622 (SEQ ID NO: 34)”, the “Cells without GFP (%)” value in the data set with genomic EGFP locus [1] (setting [3]) was 3.96%; with genomic EGFP locus [1] (setting [4]) it was 5.67%. The “Loss of GFP expression / nuclease activity, in words” value in the data set on genomic EGFP locus [1] is “lack of nuclease activity”.

For the substance “intein(Cys80)-Cas9: Cas9 with 37R3-2 intein replacing Cys80 (SEQ ID NO: 27)”, the “Cells without GFP (%)” value in the data set with genomic EGFP locus [1] (setting [3]) came to 4.96%; in the data set on genomic EGFP locus [1] (setting [4]), 7.08%. The “Loss of GFP expression / nuclease activity, in words” value in the data set with genomic EGFP locus [1] was “lack of nuclease activity”.

As to “intein(Ser1159)-Cas9: Cas9 with 37R3-2 intein replacing Ser1159 (SEQ ID NO: 40)”, the “Cells without GFP (%)” value with genomic EGFP locus [1] (setting [3]) is given as 13.21%; with genomic EGFP locus [1] (setting [4]), 5.65%. In the data set with genomic EGFP locus [1], the “Loss of GFP expression / nuclease activity, in words” value is listed as 4-HT-dependent loss of GFP expression.

Consider “intein(Thr519)-Cas9: Cas9 with 37R3-2 intein replacing Thr519 (SEQ ID NO: 32)”, for which the “Cells without GFP (%)” value is 14.55% in the data set on genomic EGFP locus [1] (setting [5]); 13.98% in the data set with genomic EGFP locus [1] (setting [6]); 14.74% in the data set on genomic EGFP locus [1] (setting [7]); 13.93% with genomic EGFP locus [1] (setting [8]); 18.04% with genomic EGFP locus [1] (setting [9]); 25.96% in the data set on genomic EGFP locus [1] (setting [3]). Besides, the “Cells without GFP (%)” value in the data set with genomic EGFP locus [1] (setting [4]) is 9.49%; in the data set on genomic EGFP locus [1] (−4-HT, time course, Table 2), 4.29%. In the data set with genomic EGFP locus [1], the “Loss of GFP expression / nuclease activity, in words” value was 4-HT-dependent loss of GFP expression.

As to “intein(Ala127)-Cas9: Cas9 with 37R3-2 intein replacing Ala127 (SEQ ID NO: 28)”, the “Cells without GFP (%)” value with genomic EGFP locus [1] (setting [5]) is 18.95%; in the data set on genomic EGFP locus [1] (setting [6]), 18.57%; in the data set with genomic EGFP locus [1] (setting [7]), 18.64%; with genomic EGFP locus [1] (setting [8]), 18.35%; in the data set with genomic EGFP locus [1] (setting [9]), 16.83%; in the data set on genomic EGFP locus [1] (setting [3]) it was 19.73%. In addition, the “Cells without GFP (%)” value amounted to 7.97% with genomic EGFP locus [1] (setting [4]) and 5.03% in the data set with genomic EGFP locus [1] (−4-HT, time course, Table 2). Moreover, the “Loss of GFP expression / nuclease activity, in words” value with genomic EGFP locus [1] is on record as 4-HT-dependent loss of GFP expression.

In the case of “intein(Ser1274)-Cas9: Cas9 with 37R3-2 intein replacing Ser1274 (SEQ ID NO: 41)”, the “Cells without GFP (%)” value in the data set with genomic EGFP locus [1] (setting [3]) came out at 5.00%; in the data set with genomic EGFP locus [1] (setting [4]), 3.08%. Further, in the data set on genomic EGFP locus [1], the “Loss of GFP expression / nuclease activity, in words” value was “lack of nuclease activity”.

For “intein(Ser701)-Cas9: Cas9 with 37R3-2 intein replacing Ser701 (SEQ ID NO: 35)”, the “Cells without GFP (%)” value in the data set on genomic EGFP locus [1] (setting [3]) worked out at 9.56%; with genomic EGFP locus [1] (setting [4]), 6.54%. In addition, the “Loss of GFP expression / nuclease activity, in words” value in the data set with genomic EGFP locus [1] is “lack of nuclease activity”.

For the substance “intein-Cas9(5219-G521R): intein-Cas9(S219) with point mutation G521R in the estrogen receptor ligand-binding domain (probably SEQ ID NO: 166)”, the “Ability of β-estradiol to trigger Cas9 activity (genomic EGFP disruption)” value in the data set on genomic EGFP locus [2] was “eliminates the ability of β-estradiol to trigger Cas9 activity”.

“intein(Thr995)-Cas9: Cas9 with 37R3-2 intein replacing Thr995 (SEQ ID NO: 37)”: the “Cells without GFP (%)” value in the data set on genomic EGFP locus [1] (setting [3]) is 21.39%; in the data set on genomic EGFP locus [1] (setting [4]) it was 14.95%. The “Loss of GFP expression / nuclease activity, in words” value in the data set on genomic EGFP locus [1] was “high DNA modification rates both in the presence and absence of 4-HT”.
